Source: patent US10238631B2, “Sesquiterpene derivatives and their use in inflammation or cancer treatment” (Academia Sinica, priority 2014, dated 2019)

system: MCF-7 (ER+, Her2−) human breast cancer cells; assay: MTT cell viability assay, MCF-7 cells; assay type: cell-based; conditions: MCF7, 24 h, read-out: IC50 on cell viability, MCF-7 (ER+, Her2−)
Protocol: (§1) Normal or cancer cells (2×10^3 to 1×10^4 cells/well) were seeded in 96-well plate for overnight and treated with different compounds for 24 h to 72 h. Cells growth were determined by MTT-based colorimetric assays according to. Viability of the test cells treated with vehicle (0.5% DMSO) only was defined as 100% viable. Survival of cells after treatment with DETDs was calculated using the following formula: viable cell number (%)=OD570 (treated cell culture)/OD570 (vehicle control)×100.
(§2) Sixty DETDs were derived from parental compound […] and tested for anti-breast cancer cell activity.

Compound | IC50 [µM]
C=C1C(=O)OC2CC3=C[C@@H](C/C(C)=C/C(OC(=O)C(CC)CCCC)[C@H]12)OC3=O (stereo partly drawn) [DETD-21] | 4.5
C=C1C(=O)OC2CC3=C[C@@H](C/C(C)=C/C(OC(=O)/C=C/CC)[C@H]12)OC3=O (stereo partly drawn) [DETD-25] | 5.8
C=C1C(=O)OC2CC3=C[C@@H](C/C(C)=C/C(OC(=O)/C=C/c4cccc(C(F)(F)F)c4)[C@H]12)OC3=O (stereo partly drawn) [DETD-48] | > 7.5
C=C(CC)C(=O)OC1/C=C(\C)C[C@@H]2C=C(CC3OC(=O)C(=C)[C@@H]13)C(=O)O2 (stereo partly drawn) [DETD-19] | 3.5

system: A2058 (BRAF mutation); assay: MTT cell viability assay, A2058 melanoma; assay type: cell-based, human; conditions: Homo sapiens, A2058, 24 h
Protocol: as §1
(§3) Several genes are involved in melanoma development and pathology; specifically, mutation in V-raf murine sarcoma viral oncogene homolog B1 (B-RAF) occurs approximately 50-60% and in neuroblastoma RAS viral oncogene homolog (N-RAS) occurs about 30% of malignant melanomas. A spectrum of wild-type or mutated melanoma cell lines including B16-F10, MeWo, A375, A2058, HTB-68, and melanocyte were used to study anti-melanoma cell proliferation activity of parental phytocompound DET and newly synthesized DETDs.

Compound | IC50 [µM]
C=C1C(=O)OC2CC3=C[C@@H](C/C(C)=C/C(OC(=O)C(CC)CCCC)[C@H]12)OC3=O (stereo partly drawn) [DETD-21] | > 10
C=C1C(=O)OC2CC3=C[C@@H](C/C(C)=C/C(OC(=O)/C=C/CC)[C@H]12)OC3=O (stereo partly drawn) [DETD-25] | > 10
C=C1C(=O)OC2CC3=C[C@@H](C/C(C)=C/C(OC(=O)/C=C/c4cccc(C(F)(F)F)c4)[C@H]12)OC3=O (stereo partly drawn) [DETD-48] | > 10
C=C(CC)C(=O)OC1/C=C(\C)C[C@@H]2C=C(CC3OC(=O)C(=C)[C@@H]13)C(=O)O2 (stereo partly drawn) [DETD-19] | > 10

system: B16-F10 (NRAS mutation); assay: MTT cell viability assay, B16-F10 melanoma; assay type: cell-based; conditions: Mus musculus, B16-F10, 24 h, 24 h, read-out: IC50 on cell viability, B16-F10 (NRAS mutation)
Protocol: as §1, §3

Compound | IC50 [µM]
C=C1C(=O)OC2CC3=C[C@@H](C/C(C)=C/C(OC(=O)C(CC)CCCC)[C@H]12)OC3=O (stereo partly drawn) [DETD-21] | > 10
C=C1C(=O)OC2CC3=C[C@@H](C/C(C)=C/C(OC(=O)/C=C/CC)[C@H]12)OC3=O (stereo partly drawn) [DETD-25] | > 10
C=C1C(=O)OC2CC3=C[C@@H](C/C(C)=C/C(OC(=O)/C=C/c4cccc(C(F)(F)F)c4)[C@H]12)OC3=O (stereo partly drawn) [DETD-48] | > 10
C=C(CC)C(=O)OC1/C=C(\C)C[C@@H]2C=C(CC3OC(=O)C(=C)[C@@H]13)C(=O)O2 (stereo partly drawn) [DETD-19] | 7.8

system: M10 normal mammary epithelial cells; assay: MTT cell viability assay, M10 normal cells; assay type: cell-based, human; conditions: Homo sapiens, Epithelial cell, 24 h
Protocol: as §1, §2

Compound | IC50 [µM]
C=C1C(=O)OC2CC3=C[C@@H](C/C(C)=C/C(OC(=O)C(CC)CCCC)[C@H]12)OC3=O (stereo partly drawn) [DETD-21] | > 7.5
C=C1C(=O)OC2CC3=C[C@@H](C/C(C)=C/C(OC(=O)/C=C/CC)[C@H]12)OC3=O (stereo partly drawn) [DETD-25] | > 7.5
C=C1C(=O)OC2CC3=C[C@@H](C/C(C)=C/C(OC(=O)/C=C/c4cccc(C(F)(F)F)c4)[C@H]12)OC3=O (stereo partly drawn) [DETD-48] | > 7.5
C=C(CC)C(=O)OC1/C=C(\C)C[C@@H]2C=C(CC3OC(=O)C(=C)[C@@H]13)C(=O)O2 (stereo partly drawn) [DETD-19] | > 7.5

system: MDA-MB-231 (ER−, PR−, Her2−) human breast cancer cells; assay: MTT cell viability assay, MDA-MB-231 cells; assay type: cell-based; conditions: Homo sapiens, MDA-MB-231, 24 h, read-out: IC50 on cell viability, MDA-MB-231 (ER−, PR−, Her2−)
Protocol: as §1, §2

Compound | IC50 [µM]
C=C1C(=O)OC2CC3=C[C@@H](C/C(C)=C/C(OC(=O)C(CC)CCCC)[C@H]12)OC3=O (stereo partly drawn) [DETD-21] | > 7.5
C=C1C(=O)OC2CC3=C[C@@H](C/C(C)=C/C(OC(=O)/C=C/CC)[C@H]12)OC3=O (stereo partly drawn) [DETD-25] | > 7.5
C=C1C(=O)OC2CC3=C[C@@H](C/C(C)=C/C(OC(=O)/C=C/c4cccc(C(F)(F)F)c4)[C@H]12)OC3=O (stereo partly drawn) [DETD-48] | 8.2
C=C(CC)C(=O)OC1/C=C(\C)C[C@@H]2C=C(CC3OC(=O)C(=C)[C@@H]13)C(=O)O2 (stereo partly drawn) [DETD-19] | 4.6

system: A375 (BRAF mutation); assay: MTT cell viability assay, A375 melanoma; assay type: cell-based, human; conditions: Homo sapiens, A-375, 24 h, 24 h, MTT; read-out: IC50 on cell viability, A375 (BRAF mutation)
Protocol: as §1, §3
To investigate whether or not DETD-35 show synergism with PLX4032 against A375 melanoma cells, we performed anti-proliferation assay using MTT reagent to obtain IC50 of each compound. […] The synergistic effect was quantified by combination index (CI) analysis as stated above.

Compound | IC50 [µM]
C=C1C(=O)OC2CC3=C[C@@H](C/C(C)=C/C(OC(=O)C(CC)CCCC)[C@H]12)OC3=O (stereo partly drawn) [DETD-21] | > 10
C=C1C(=O)OC2CC3=C[C@@H](C/C(C)=C/C(OC(=O)/C=C/CC)[C@H]12)OC3=O (stereo partly drawn) [DETD-25] | > 10
C=C1C(=O)OC2CC3=C[C@@H](C/C(C)=C/C(OC(=O)/C=C/c4cccc(C(F)(F)F)c4)[C@H]12)OC3=O (stereo partly drawn) [DETD-48] | 6.9
C=C(CC)C(=O)OC1/C=C(\C)C[C@@H]2C=C(CC3OC(=O)C(=C)[C@@H]13)C(=O)O2 (stereo partly drawn) [DETD-19] | > 10

system: HTB-68 (NRAS mutation); assay: MTT cell viability assay, HTB-68 melanoma; assay type: cell-based, human; conditions: Homo sapiens, 24 h
Protocol: as §1, §3

Compound | IC50 [µM]
C=C1C(=O)OC2CC3=C[C@@H](C/C(C)=C/C(OC(=O)C(CC)CCCC)[C@H]12)OC3=O (stereo partly drawn) [DETD-21] | > 10
C=C1C(=O)OC2CC3=C[C@@H](C/C(C)=C/C(OC(=O)/C=C/CC)[C@H]12)OC3=O (stereo partly drawn) [DETD-25] | > 10
C=C1C(=O)OC2CC3=C[C@@H](C/C(C)=C/C(OC(=O)/C=C/c4cccc(C(F)(F)F)c4)[C@H]12)OC3=O (stereo partly drawn) [DETD-48] | > 10
C=C(CC)C(=O)OC1/C=C(\C)C[C@@H]2C=C(CC3OC(=O)C(=C)[C@@H]13)C(=O)O2 (stereo partly drawn) [DETD-19] | > 10

system: LPS-induced nitric oxide (NO) production in RAW 264.7 cells; assay: Nitric oxide production in LPS-stimulated macrophages (Griess); assay type: cell-based, mouse; conditions: Mus musculus; LPS-stimulated RAW264.7, nitrite 24 h after LPS
Protocol: (§4) Marcophages (2×10^5 cells/well in 96-well plate) were treated with compounds for 1 h, then incubated further for 24 h with or without the presence of […] LPS in the cultural medium. Nitrite levels in cell culture medium were determined by the Griess reaction method. In parallel to the Griess assays, macrophage cell viabilities were determined using the MTT based colorimetric assay.
LPS from the outer membrane of Gram-negative bacteria can induce mRNA or protein levels of inducible nitric oxide synthase (iNOS), which catalyzes oxidative deamination of L-arginine to produce nitric oxide (NO). Once NO is predominantly produced, it interacts with superoxide anion and generates highly reactive oxidants resulting in cellular inflammation, DNA, protein and tissue damages, carcinogenesis, and antiapoptosis. We used in vitro LPS stimulated inflammation in RAW264.7 cell system to evaluate the effect of DET and its derivatives DETDs on NO production by determination of nitrite level (equivalent to NO level) in culture medium 24 h after LPS treatment.

Compound | IC50 [µM]
C=C1C(=O)OC2CC3=C[C@@H](C/C(C)=C/C(OC(=O)C(CC)CCCC)[C@H]12)OC3=O (stereo partly drawn) [DETD-21] | 4.7
C=C1C(=O)OC2CC3=C[C@@H](C/C(C)=C/C(OC(=O)/C=C/CC)[C@H]12)OC3=O (stereo partly drawn) [DETD-25] | 4.9
C=C1C(=O)OC2CC3=C[C@@H](C/C(C)=C/C(OC(=O)/C=C/c4cccc(C(F)(F)F)c4)[C@H]12)OC3=O (stereo partly drawn) [DETD-48] | > 10
C=C(CC)C(=O)OC1/C=C(\C)C[C@@H]2C=C(CC3OC(=O)C(=C)[C@@H]13)C(=O)O2 (stereo partly drawn) [DETD-19] | 3.8

system: Melanocyte (Normal cells); assay: MTT cell viability assay, normal melanocytes; assay type: cell-based, human; conditions: Homo sapiens, Melanocyte, 24 h
Protocol: as §1, §3

Compound | IC50 [µM]
C=C1C(=O)OC2CC3=C[C@@H](C/C(C)=C/C(OC(=O)C(CC)CCCC)[C@H]12)OC3=O (stereo partly drawn) [DETD-21] | > 10
C=C1C(=O)OC2CC3=C[C@@H](C/C(C)=C/C(OC(=O)/C=C/CC)[C@H]12)OC3=O (stereo partly drawn) [DETD-25] | > 10
C=C1C(=O)OC2CC3=C[C@@H](C/C(C)=C/C(OC(=O)/C=C/c4cccc(C(F)(F)F)c4)[C@H]12)OC3=O (stereo partly drawn) [DETD-48] | > 10
C=C(CC)C(=O)OC1/C=C(\C)C[C@@H]2C=C(CC3OC(=O)C(=C)[C@@H]13)C(=O)O2 (stereo partly drawn) [DETD-19] | > 10

system: RAW264.7 (normal macrophage); assay: MTT cell viability assay, RAW264.7 macrophages; assay type: cell-based, mouse; conditions: Mus musculus, RAW264.7, 24 h
Protocol: as §1, §4

Compound | IC50 [µM]
C=C1C(=O)OC2CC3=C[C@@H](C/C(C)=C/C(OC(=O)C(CC)CCCC)[C@H]12)OC3=O (stereo partly drawn) [DETD-21] | > 10
C=C1C(=O)OC2CC3=C[C@@H](C/C(C)=C/C(OC(=O)/C=C/CC)[C@H]12)OC3=O (stereo partly drawn) [DETD-25] | > 10
C=C1C(=O)OC2CC3=C[C@@H](C/C(C)=C/C(OC(=O)/C=C/c4cccc(C(F)(F)F)c4)[C@H]12)OC3=O (stereo partly drawn) [DETD-48] | > 10
C=C(CC)C(=O)OC1/C=C(\C)C[C@@H]2C=C(CC3OC(=O)C(=C)[C@@H]13)C(=O)O2 (stereo partly drawn) [DETD-19] | > 10

system: MeWo (No NRAS or BRAF mutation); assay: MTT cell viability assay, MeWo melanoma; assay type: cell-based, human; conditions: Homo sapiens, MeWo, 24 h
Protocol: as §1, §3

Compound | IC50 [µM]
C=C1C(=O)OC2CC3=C[C@@H](C/C(C)=C/C(OC(=O)C(CC)CCCC)[C@H]12)OC3=O (stereo partly drawn) [DETD-21] | > 10
C=C1C(=O)OC2CC3=C[C@@H](C/C(C)=C/C(OC(=O)/C=C/CC)[C@H]12)OC3=O (stereo partly drawn) [DETD-25] | > 10
C=C1C(=O)OC2CC3=C[C@@H](C/C(C)=C/C(OC(=O)/C=C/c4cccc(C(F)(F)F)c4)[C@H]12)OC3=O (stereo partly drawn) [DETD-48] | > 10
C=C(CC)C(=O)OC1/C=C(\C)C[C@@H]2C=C(CC3OC(=O)C(=C)[C@@H]13)C(=O)O2 (stereo partly drawn) [DETD-19] | > 10

system: TS/A (ER+, Her2−) murine mammary cancer cells; assay: MTT cell viability assay, TS/A cells; assay type: cell-based; conditions: Mus musculus, 24 h, read-out: IC50 on cell viability, TS/A (ER+, Her2−)
Protocol: as §1, §2

Compound | IC50 [µM]
C=C1C(=O)OC2CC3=C[C@@H](C/C(C)=C/C(OC(=O)C(CC)CCCC)[C@H]12)OC3=O (stereo partly drawn) [DETD-21] | 4
C=C1C(=O)OC2CC3=C[C@@H](C/C(C)=C/C(OC(=O)/C=C/CC)[C@H]12)OC3=O (stereo partly drawn) [DETD-25] | 4
C=C1C(=O)OC2CC3=C[C@@H](C/C(C)=C/C(OC(=O)/C=C/c4cccc(C(F)(F)F)c4)[C@H]12)OC3=O (stereo partly drawn) [DETD-48] | > 7.5
C=C(CC)C(=O)OC1/C=C(\C)C[C@@H]2C=C(CC3OC(=O)C(=C)[C@@H]13)C(=O)O2 (stereo partly drawn) [DETD-19] | 1.7
